PubChem BioAssay (NCI)
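Cultured in 96-well plates, cells were exposed to test compound for 48 hours across five concentrations. GI50: concentration for 50% inhibition of growth. TGI: total growth inhibition.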

Key:
Experiment in all cases: NCI tumour cell line growth inhibition, 48 h
NCI-H522 lung = tested on: NCI-H522 lung
HS 578T breast = tested on: HS 578T breast
HCT-15 colon = tested on: HCT-15 colon
KM12 colon = tested on: KM12 colon
CAKI-1 renal = tested on: CAKI-1 renal
SN12C renal = tested on: SN12C renal
NCI-H460 lung = tested on: NCI-H460 lung
DU-145 prostate = tested on: DU-145 prostate
SK-MEL-2 melanoma = tested on: SK-MEL-2 melanoma
SNB-75 CNS = tested on: SNB-75 CNS
A498 renal = tested on: A498 renal
SR leukemia = tested on: SR leukemia
HT29 colon = tested on: HT29 colon
LOX IMVI melanoma = tested on: LOX IMVI melanoma
U251 CNS = tested on: U251 CNS
PC-3 prostate = tested on: PC-3 prostate
OVCAR-4 ovarian = tested on: OVCAR-4 ovarian
NCI-H23 lung = tested on: NCI-H23 lung
HCC-2998 colon = tested on: HCC-2998 colon
K-562 leukemia = tested on: K-562 leukemia
UACC-62 melanoma = tested on: UACC-62 melanoma
SF-268 CNS = tested on: SF-268 CNS
HOP-92 NSCLC = tested on: HOP-92 NSCLC
MDA-MB-231 breast = tested on: MDA-MB-231 breast
SK-OV-3 ovarian = tested on: SK-OV-3 ovarian
CCRF-CEM leukemia = tested on: CCRF-CEM leukemia
UACC-257 melanoma = tested on: UACC-257 melanoma
786-0 renal = tested on: 786-0 renal
HL-60(TB) leukemia = tested on: HL-60(TB) leukemia
MDA-MB-435 = tested on: MDA-MB-435
M14 melanoma = tested on: M14 melanoma
EKVX NSCLC = tested on: EKVX NSCLC
OVCAR-8 ovarian = tested on: OVCAR-8 ovarian
UO-31 renal = tested on: UO-31 renal
COLO 205 colon = tested on: COLO 205 colon
MCF7 breast = tested on: MCF7 breast
SF-539 CNS = tested on: SF-539 CNS
SK-MEL-28 melanoma = tested on: SK-MEL-28 melanoma
OVCAR-5 ovarian = tested on: OVCAR-5 ovarian
SNB-19 CNS = tested on: SNB-19 CNS
TK-10 renal = tested on: TK-10 renal
RXF 393 renal = tested on: RXF 393 renal
MOLT-4 leukemia = tested on: MOLT-4 leukemia
ACHN renal = tested on: ACHN renal
NCI-H226 lung = tested on: NCI-H226 lung
NCI/ADR-RES ovarian = tested on: NCI/ADR-RES ovarian
MALME-3M melanoma = tested on: MALME-3M melanoma
SF-295 CNS = tested on: SF-295 CNS
T-47D breast = tested on: T-47D breast
IGROV1 ovarian = tested on: IGROV1 ovarian
BT-549 breast = tested on: BT-549 breast
A549 NSCLC = tested on: A549 NSCLC
SK-MEL-5 melanoma = tested on: SK-MEL-5 melanoma
HCT-116 colon = tested on: HCT-116 colon
SW-620 colon = tested on: SW-620 colon
RPMI-8226 leukemia = tested on: RPMI-8226 leukemia
HOP-62 NSCLC = tested on: HOP-62 NSCLC
OVCAR-3 ovarian = tested on: OVCAR-3 ovarian

Work on `COc1ccc(OC)c(Cn2cc3c(c2)-c2oncc2CC3)c1` yielded a GI50 (NCI-H522 lung) of 1.63 µM, a TGI (NCI-H522 lung) of 4.89 µM and a GI50 (HS 578T breast) of 2.25 µM. The TGI (HS 578T breast) was 8.32 µM, the GI50 (HCT-15 colon) was 2.92 µM and the TGI (HCT-15 colon) was greater than 100 µM. The GI50 (KM12 colon) was 3.02 µM, the TGI (KM12 colon) was 39.4 µM and the GI50 (CAKI-1 renal) was 2.73 µM. For the same compound, the TGI (CAKI-1 renal) was greater than 100 µM, the GI50 (SN12C renal) was 5.97 µM and the TGI (SN12C renal) was greater than 100 µM. The GI50 (NCI-H460 lung) was 3.26 µM, the TGI (NCI-H460 lung) was 17.7 µM and the GI50 (DU-145 prostate) was 3.74 µM. The TGI (DU-145 prostate) was greater than 64.3 µM, the GI50 (SK-MEL-2 melanoma) was 2.03 µM and the TGI (SK-MEL-2 melanoma) was 7.62 µM. The GI50 (SNB-75 CNS) was 1.75 µM, the TGI (SNB-75 CNS) was 6.56 µM and the GI50 (A498 renal) was 1.73 µM. The TGI (A498 renal) was 7.22 µM, the GI50 (SR leukemia) was 1.16 µM and the TGI (SR leukemia) was 18.2 µM. It also gave a GI50 (HT29 colon) of 2.35 µM, a TGI (HT29 colon) of 10.9 µM and a GI50 (LOX IMVI melanoma) of 4.06 µM. For the same compound, the TGI (LOX IMVI melanoma) was greater than 100 µM, the GI50 (U251 CNS) was 3.54 µM and the TGI (U251 CNS) was greater than 100 µM. It also gave a GI50 (PC-3 prostate) of 5.89 µM, a TGI (PC-3 prostate) greater than 100 µM and a GI50 (OVCAR-4 ovarian) of 5.74 µM. For the same compound, the TGI (OVCAR-4 ovarian) was greater than 100 µM, the GI50 (NCI-H23 lung) was 3.8 µM and the TGI (NCI-H23 lung) was greater than 90.2 µM. The GI50 (HCC-2998 colon) was 4.72 µM, the TGI (HCC-2998 colon) was 38.1 µM and the GI50 (K-562 leukemia) was 0.762 µM. It also gave a TGI (K-562 leukemia) greater than 57.8 µM, a GI50 (UACC-62 melanoma) of 3.97 µM and a TGI (UACC-62 melanoma) greater than 100 µM. For the same compound, the GI50 (SF-268 CNS) was 6.22 µM, the TGI (SF-268 CNS) was greater than 100 µM and the GI50 (HOP-92 NSCLC) was 3.25 µM. The TGI (HOP-92 NSCLC) was 57.8 µM, the GI50 (MDA-MB-231 breast) was 5.02 µM and the TGI (MDA-MB-231 breast) was greater than 72 µM. For the same compound, the GI50 (SK-OV-3 ovarian) was 3.13 µM, the TGI (SK-OV-3 ovarian) was greater than 57.5 µM and the GI50 (CCRF-CEM leukemia) was 2.13 µM. The TGI (CCRF-CEM leukemia) was greater than 26 µM, the GI50 (UACC-257 melanoma) was 5.11 µM and the TGI (UACC-257 melanoma) was greater than 82.4 µM. The GI50 (786-0 renal) was 5.49 µM, the TGI (786-0 renal) was greater than 63.6 µM and the GI50 (HL-60(TB) leukemia) was 1.65 µM. The TGI (HL-60(TB) leukemia) was 6.74 µM, the GI50 (MDA-MB-435) was 0.316 µM and the TGI (MDA-MB-435) was 1.42 µM. For the same compound, the GI50 (M14 melanoma) was 2.15 µM, the TGI (M14 melanoma) was 9.48 µM and the GI50 (EKVX NSCLC) was 4.22 µM. The TGI (EKVX NSCLC) was greater than 100 µM, the GI50 (OVCAR-8 ovarian) was 5.27 µM and the TGI (OVCAR-8 ovarian) was greater than 100 µM. It also gave a GI50 (UO-31 renal) of 4.13 µM, a TGI (UO-31 renal) of 38.8 µM and a GI50 (COLO 205 colon) of 3.56 µM. It also gave a TGI (COLO 205 colon) of 13.6 µM, a GI50 (MCF7 breast) of 3.02 µM and a TGI (MCF7 breast) greater than 81.9 µM. It also gave a GI50 (SF-539 CNS) of 2.28 µM, a TGI (SF-539 CNS) of 7.63 µM and a GI50 (SK-MEL-28 melanoma) of 5.09 µM. For the same compound, the TGI (SK-MEL-28 melanoma) was greater than 100 µM, the GI50 (OVCAR-5 ovarian) was 6.08 µM and the TGI (OVCAR-5 ovarian) was greater than 100 µM. For the same compound, the GI50 (SNB-19 CNS) was 4.74 µM, the TGI (SNB-19 CNS) was greater than 100 µM and the GI50 (TK-10 renal) was 4.23 µM. For the same compound, the TGI (TK-10 renal) was greater than 100 µM, the GI50 (RXF 393 renal) was 2.67 µM and the TGI (RXF 393 renal) was 15.7 µM. The GI50 (MOLT-4 leukemia) was 3.08 µM, the TGI (MOLT-4 leukemia) was greater than 41.2 µM and the GI50 (ACHN renal) was 6.07 µM. It also gave a TGI (ACHN renal) greater than 100 µM, a GI50 (NCI-H226 lung) of 7.67 µM and a TGI (NCI-H226 lung) greater than 100 µM. For the same compound, the GI50 (NCI/ADR-RES ovarian) was 2.01 µM, the TGI (NCI/ADR-RES ovarian) was 6.68 µM and the GI50 (MALME-3M melanoma) was 3.03 µM. The TGI (MALME-3M melanoma) was 40.7 µM, the GI50 (SF-295 CNS) was 2.43 µM and the TGI (SF-295 CNS) was 11.1 µM. It also gave a GI50 (T-47D breast) of 7.1 µM, a TGI (T-47D breast) greater than 100 µM and a GI50 (IGROV1 ovarian) of 3.87 µM. For the same compound, the TGI (IGROV1 ovarian) was greater than 100 µM, the GI50 (BT-549 breast) was 4.05 µM and the TGI (BT-549 breast) was greater than 100 µM. For the same compound, the GI50 (A549 NSCLC) was 4.42 µM, the TGI (A549 NSCLC) was greater than 100 µM and the GI50 (SK-MEL-5 melanoma) was 2.61 µM. It also gave a TGI (SK-MEL-5 melanoma) of 8.99 µM, a GI50 (HCT-116 colon) of 3.32 µM and a TGI (HCT-116 colon) of 39 µM. It also gave a GI50 (SW-620 colon) of 2.87 µM, a TGI (SW-620 colon) greater than 100 µM and a GI50 (RPMI-8226 leukemia) of 3.39 µM. The TGI (RPMI-8226 leukemia) was greater than 27.9 µM, the GI50 (HOP-62 NSCLC) was 4.08 µM and the TGI (HOP-62 NSCLC) was greater than 100 µM. For the same compound, the GI50 (OVCAR-3 ovarian) was 2.29 µM and the TGI (OVCAR-3 ovarian) was 5.98 µM.
